Like-named read-outs stand apart in the source and are kept apart here.
Legend:
[1] = biological target: T1, α-galactosidase from green coffee beans (gcb, GH 27) (Coffea arabica, UniProt Q42656); conditions: cited from earlier work
T1 construct: Green coffee bean α-galactosidase: 50 mM sodium phosphate buffer (pH 7); from tissue; host or cells: green coffee beans

[2] = tested on: α-galactosidase from E. coli (GH 36); conditions: cited from earlier work
[3] = biological target: α-glucosidase from S. cerevisiae (GH 13); parameters: method as in PMID 2825997; conditions: yeast; read-out: Ki α-Glc (yeast); cited from earlier work
[4] = biological target: T2, β-glucosidase/β-galactosidase from Agrobacterium sp. (Abg, GH 1) (Agrobacterium sp., UniProt P12614); experiment: Ki determination with Agrobacterium sp. β-glucosidase (Abg); format: biochemical; conditions: pH 7, substrate Gal-β-pNP, room temperature; read-out: Ki Abg (β-Glc/β-Gal) (GH 1)
T2 sequence (P12614 1-459): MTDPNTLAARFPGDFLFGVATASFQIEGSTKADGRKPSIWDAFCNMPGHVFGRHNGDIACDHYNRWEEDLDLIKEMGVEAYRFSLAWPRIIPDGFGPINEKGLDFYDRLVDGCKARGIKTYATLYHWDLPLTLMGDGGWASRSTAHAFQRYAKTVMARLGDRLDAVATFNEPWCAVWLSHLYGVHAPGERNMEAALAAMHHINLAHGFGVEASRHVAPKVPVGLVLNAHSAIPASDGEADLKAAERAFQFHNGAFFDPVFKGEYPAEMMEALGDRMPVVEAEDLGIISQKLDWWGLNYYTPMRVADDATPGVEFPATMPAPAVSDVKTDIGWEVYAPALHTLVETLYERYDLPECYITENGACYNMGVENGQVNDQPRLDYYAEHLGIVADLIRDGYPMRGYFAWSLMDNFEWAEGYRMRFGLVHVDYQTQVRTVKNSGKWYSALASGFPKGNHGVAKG
Protocol: (§1) Kinetic studies were performed at room temperature in an appropriate buffer for each enzyme (specific conditions can be found below). All reactions were performed in half-area 96-well-plates (Corning) and monitored with a Synergy H1 plate reader (BioTek). In each experiment, the appropriate concentration of the enzyme was incubated with different concentrations of the inhibitors for 2–5 minutes before initiating the reaction by the addition of the glycoside substrate. The initial rate was then measured by monitoring the increase in, either absorbance at 405 nm (where the aglycone is either p-nitrophenol (pNP) or 2,4-dinitrophenol (dNP)) or fluorescence at 365/455 nm (where the aglycone is 4-methylumbelliferone (MU)) for up to five minutes. Ki determinations were performed using two different substrate concentrations. For each substrate concentration, a range of three to six inhibitor concentrations was used. Dixon plots (1/v vs. [I]) were constructed to validate the use of competitive inhibition model and to assess the fit of the data. The data were then fit to a competitive inhibition model using non-linear regression analysis with Grafit 7.0.0. (Erithacus Software).
Agrobacterium sp. β-glucosidase:[48,49]

[5] = biological target: lac Z β-galactosidase from E. coli (GH 2) (Escherichia coli, UniProt P00722); experiment: Ki determination with E. coli lac Z β-galactosidase; format: biochemical; conditions: pH 7, substrate Gal-β-pNP, room temperature
Protocol: as §1

[6] = biological target: T3, Fabrazyme® (commercial recombinant lysosomal α-galactosidase, GH 27) (Homo sapiens, UniProt P06280); experiment: Ki determination with Fabrazyme (acid α-galactosidase); format: biochemical; conditions: pH 5.5, substrate Gal-α-dNP, room temperature
T3 construct: purchased
T3 sequence (P06280 32-429): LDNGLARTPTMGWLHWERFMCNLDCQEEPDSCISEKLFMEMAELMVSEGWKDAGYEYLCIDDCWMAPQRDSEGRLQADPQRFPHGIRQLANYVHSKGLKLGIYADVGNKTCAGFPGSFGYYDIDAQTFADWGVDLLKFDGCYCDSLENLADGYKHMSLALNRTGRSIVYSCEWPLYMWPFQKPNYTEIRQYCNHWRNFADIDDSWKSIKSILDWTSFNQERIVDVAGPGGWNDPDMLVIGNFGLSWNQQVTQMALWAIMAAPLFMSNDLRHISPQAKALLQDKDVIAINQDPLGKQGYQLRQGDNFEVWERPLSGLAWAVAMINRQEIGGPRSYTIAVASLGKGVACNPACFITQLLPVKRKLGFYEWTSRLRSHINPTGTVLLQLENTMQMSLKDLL
Protocol: as §1

[7] = biological target: T1, α-galactosidase from green coffee beans (gcb, GH 27); experiment: Ki determination with green coffee bean α-galactosidase; format: biochemical; conditions: pH 7, substrate Gal-α-MU, room temperature
Protocol: as §1

[8] = biological target: α-glucosidase from S. cerevisiae (GH 13); experiment: Ki determination with S. cerevisiae α-glucosidase; format: biochemical; conditions: pH 7, substrate Glc-α-pNP, room temperature; read-out: Ki S. cer. (α-Glc) (GH 13)
Protocol: as §1
S. cerevisiae α-glucosidase: 50 mM sodium phosphate buffer (pH 7). Substrate: Glc-α-pNP, Km = 0.75 mM.

[9] = biological target: T4, recombinant human lysosomal β-glucocerebrosidase (GCase, GH 30) (Homo sapiens, UniProt P04062); experiment: Ki determination with GCase (β-glucocerebrosidase); format: biochemical; conditions: pH 7, substrate Glc-β-dNP, room temperature
T4 sequence (P04062 40-536): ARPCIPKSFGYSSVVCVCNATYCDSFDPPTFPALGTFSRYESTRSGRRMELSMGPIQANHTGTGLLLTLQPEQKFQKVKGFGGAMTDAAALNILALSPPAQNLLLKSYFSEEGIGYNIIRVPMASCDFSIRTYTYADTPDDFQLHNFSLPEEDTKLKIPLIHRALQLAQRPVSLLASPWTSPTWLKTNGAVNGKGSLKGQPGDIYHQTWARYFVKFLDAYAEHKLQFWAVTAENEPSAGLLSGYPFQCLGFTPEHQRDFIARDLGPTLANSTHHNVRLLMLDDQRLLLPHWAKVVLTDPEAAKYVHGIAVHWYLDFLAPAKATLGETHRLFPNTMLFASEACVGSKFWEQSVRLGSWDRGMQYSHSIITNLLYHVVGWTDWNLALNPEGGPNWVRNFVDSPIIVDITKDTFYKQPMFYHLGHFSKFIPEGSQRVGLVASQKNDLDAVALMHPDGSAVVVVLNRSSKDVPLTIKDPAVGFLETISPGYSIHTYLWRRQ
Protocol: as §1

[10] = biological target: T3, Fabrazyme® (commercial recombinant lysosomal α-galactosidase, GH 27); conditions: cited from earlier work
[11] = tested on: bovine liver α-galactosidase; parameters: method as in PMID 15858658; conditions: cited from earlier work
[12] = biological target: β-glucosidase (almonds); parameters: method as in PMID 15064801; conditions: reported in literature, read-out: inhibitory activity against β-glucosidase; cited from earlier work
[13] = read-out: Ki gcb α-galactosidase

lac Z β-galactosidase from E. coli (GH 2), sequence (P00722 2-1024 limits assumed): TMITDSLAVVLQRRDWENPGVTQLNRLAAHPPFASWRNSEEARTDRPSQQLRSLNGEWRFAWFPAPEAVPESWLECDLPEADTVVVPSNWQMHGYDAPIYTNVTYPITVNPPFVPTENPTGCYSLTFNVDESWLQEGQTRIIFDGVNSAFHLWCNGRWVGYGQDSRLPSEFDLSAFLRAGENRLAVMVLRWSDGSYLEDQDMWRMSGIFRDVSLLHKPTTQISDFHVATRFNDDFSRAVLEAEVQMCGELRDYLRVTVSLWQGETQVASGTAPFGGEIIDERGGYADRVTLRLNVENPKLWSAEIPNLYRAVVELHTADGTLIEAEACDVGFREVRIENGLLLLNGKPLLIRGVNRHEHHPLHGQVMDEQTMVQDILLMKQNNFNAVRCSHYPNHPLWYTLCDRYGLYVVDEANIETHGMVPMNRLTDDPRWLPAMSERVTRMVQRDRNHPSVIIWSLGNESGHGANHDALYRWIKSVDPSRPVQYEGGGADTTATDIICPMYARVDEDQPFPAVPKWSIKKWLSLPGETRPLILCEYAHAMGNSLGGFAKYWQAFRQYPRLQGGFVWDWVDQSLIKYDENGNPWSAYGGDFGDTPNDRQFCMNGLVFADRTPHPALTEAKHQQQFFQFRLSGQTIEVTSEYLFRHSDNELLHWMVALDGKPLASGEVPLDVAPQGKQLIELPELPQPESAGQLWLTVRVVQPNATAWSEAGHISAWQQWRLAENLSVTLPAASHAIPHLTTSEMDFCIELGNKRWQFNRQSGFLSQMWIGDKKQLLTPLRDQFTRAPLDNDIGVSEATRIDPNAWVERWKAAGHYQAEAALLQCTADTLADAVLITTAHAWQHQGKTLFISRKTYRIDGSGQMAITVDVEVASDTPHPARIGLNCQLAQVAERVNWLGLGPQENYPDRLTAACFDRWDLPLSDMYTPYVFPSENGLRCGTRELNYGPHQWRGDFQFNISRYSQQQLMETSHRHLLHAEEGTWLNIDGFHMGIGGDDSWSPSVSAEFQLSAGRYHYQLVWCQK
T1 sequence (Q42656 16-378): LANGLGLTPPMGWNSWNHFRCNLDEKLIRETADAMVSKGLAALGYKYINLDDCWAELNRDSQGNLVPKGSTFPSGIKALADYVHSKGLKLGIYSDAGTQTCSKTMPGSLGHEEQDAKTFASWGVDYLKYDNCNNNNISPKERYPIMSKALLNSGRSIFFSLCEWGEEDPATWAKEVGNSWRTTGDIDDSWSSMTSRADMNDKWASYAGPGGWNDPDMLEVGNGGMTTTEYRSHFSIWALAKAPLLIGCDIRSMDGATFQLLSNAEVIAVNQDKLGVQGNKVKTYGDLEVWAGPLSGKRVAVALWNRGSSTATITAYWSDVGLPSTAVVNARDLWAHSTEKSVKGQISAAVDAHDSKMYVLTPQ

SMILES: N[C@H]1C[C@H](CO)[C@H](O)[C@H](O)[C@H]1O [compound 5, 4-epi-validamine]
- IC50 ([1]; read-out: IC50 gcb): 500 µM
- IC50 ([2]; read-out: IC50 E. coli): 890 µM

SMILES: OC[C@H]1NC[C@H](O)[C@@H](O)[C@H]1O [compound 1, 1,5-dideoxy-1,5-imino-D-galactitol]
- Ki [3]: > 1000 µM
- IC50 ([2]; read-out: IC50 α-galactosidase from E. coli): 0.24 µM

SMILES: Cc1c(OCC(F)(F)F)ccnc1C[S+]([O-])c1nc2ccccc2[nH]1 (stereo not shown) [lansoprazole]
- IC50 ([1]; read-out: IC50 gcb α-galactosidase): 6.4 µM

SMILES: CCCCCCCCCN[C@@H]1[C@H](O)[C@@H](O)[C@@H](O)[C@H]1CO [compound 24, (1S,2S,3S,4S,5R)-4-(n-Nonylamino)-5-(hydroxymethyl)cyclopentane-1,2,3-triol]
- Ki [4]: 0.0037 ± 0.0016 µM
- Ki [5]: 23 ± 7 µM
- Ki [6]: 0.52 ± 0.21 µM
- Ki [7]: 0.25 ± 0.05 µM
- Ki [8]: 73 ± 17 µM
- Ki [9]: 1.2 ± 0.5 µM

SMILES: CCCCCCN[C@@H]1[C@H](O)[C@@H](O)[C@@H](O)[C@H]1CO [compound 23, (1S,2S,3S,4S,5R)-4-(n-Hexylamino)-5-(hydroxymethyl)cyclopentane-1,2,3-triol]
- Ki [4]: 0.013 ± 0.003 µM
- Ki [5]: 120 ± 20 µM
- Ki [6]: 4.9 ± 0.9 µM
- Ki [7]: 0.19 ± 0.05 µM
- Ki [8]: 130 ± 40 µM
- Ki [9]: 40 ± 8 µM

SMILES: OC[C@@H]1C[C@@H](O)[C@@H](O)[C@@H](CO)N1 [compound 2]
- IC50 ([1]; read-out: IC50 gcb galactosidase): 0.06 µM
- IC50 ([2]; read-out: IC50 E. coli enzyme): 32 µM

SMILES: O=S1(=O)N[C@@H]2[C@H](O)[C@@H](O)[C@@H](O)[C@@H](CO)[C@@H]2O1 [compound 11]
- IC50 ([10]; as printed in Fig. 1): 110 µM
- Ki ([10]; read-out: Ki Fabrazyme® (α-Gal) (GH 27)): 110 µM

SMILES: N[C@@H]1[C@H](O)[C@@H](O)[C@@H](O)[C@H]1CO [compound 22, (1S,2S,3S,4S,5R)-4-Amino-5-(hydroxymethyl)cyclopentane-1,2,3-triol]
- Ki [4]: 0.014 ± 0.003 µM
- Ki [5]: 200 ± 90 µM
- Ki [6]: 9.5 ± 1.9 µM
- Ki [7]: 6.7 ± 0.9 µM
- Ki [8]: 160 ± 60 µM
- Ki [9]: 18 ± 3 µM
- Ki ([1]; read-out: Ki gcb (α-Gal) (GH 27) (converted)): 12 µM

SMILES: OC[C@H]1NC[C@@H](O)[C@H]1O [compound 7, 1,4-dideoxy-1,4-imino-D-lyxitol]
- Ki [1, 13]: 0.13 µM

SMILES: CCCCCCN1C[C@@H](O)[C@@H](O)[C@@](F)(CO)C1 [compound 4]
- Ki ([10]; read-out: Ki Fabrazyme®): 116 µM
- Ki [1, 13]: 0.5 µM

SMILES: OC[C@@H]1[C@H](O)[C@H](O)[C@@H](O)[C@H]1NCc1ccccc1 [compound 12]
- Ki [1, 13]: 0.43 µM
- inhibitory activity against bovine liver α-galactosidase [11]: does not show any inhibitory activity
- Ki [12]: 0.51 µM

SMILES: OC[C@H]1CNC[C@@H](O)[C@H]1O [compound 3, 4-epi-isofagomine]
- IC50 ([1]; read-out: IC50 gcb): 200 µM

SMILES: CN(C)c1cccc2c(S(=O)(=O)NCCCCCCN[C@@H]3[C@H](O)[C@@H](O)[C@@H](O)[C@H]3CO)cccc12 [compound 27, 5-(Dimethylamino)-N-(6-(((1S,2S,3S,4S,5R)-2,3,4-trihydroxy-5-(hydroxymethyl)cyclopentyl)amino)hexyl)naphthalene-1-sulfonamide]
- Ki [4]: 0.005 ± 0.001 µM
- Ki [5]: 7.8 ± 4.6 µM
- Ki [6]: 4.4 ± 1.1 µM
- Ki [7]: 0.14 ± 0.04 µM
- Ki [8]: 16 ± 4 µM
- Ki [9]: 0.63 ± 0.09 µM

SMILES: N[C@@H]1[C@H](O)[C@@H](O)[C@@H](O)[C@]2(CO)C[C@H]12 [compound 6]
- Ki ([1]; read-out: Ki gcb): 0.54 µM
- IC50 ([2]; read-out: IC50 E. coli): 80 µM

From publication PMC9029992, “New α-galactosidase-inhibiting aminohydroxycyclopentanes” (RSC Advances, 2021)
